Test results: ChEMBL document CHEMBL4000195, “Design and synthesis of novel 7-aminosubstituted pyrido[2,3-b]pyrazines exhibiting anti-breast cancer activity” (Eur J Med Chem, 2017)
Activity calls are given as the source filed them. No cut-off for these calls is given here.

Tests used:
MCF7 = assay: Cytotoxicity against human MCF7 cells at 5 uM by MTT assay; type: functional
T47D [1] = assay: Cytotoxicity against human T47D cells at 5 uM by MTT assay; type: functional
T47D [2] = assay: Cytotoxicity against human T47D cells at 10 uM by MTT assay; type: functional
HCC1954 [3] = assay: Cytotoxicity against human HCC1954 cells at 5 uM by MTT assay; type: functional
T47D [4] = assay: Cytotoxicity against human T47D cells by MTT assay; type: functional, cell-based
MDA-MB-231 = assay: Cytotoxicity against human MDA-MB-231 cells by MTT assay; type: functional, cell-based
[5] = target: Dual specificity protein kinase CLK1 (Mus musculus) (UniProt P22518); assay: Inhibition of mouse CLK1
[6] = target: Receptor-type tyrosine-protein kinase FLT3 (Homo sapiens) (UniProt P36888); assay: Inhibition of recombinant human GST-tagged FLT3 (571 to 993 residues) transphosphorylation activity expressed in baculovirus infected Sf9 cells using poly[Glu:Tyr] (4:1) as substrate after 60 mins
[7] = target: T1, Phosphatidylinositol 4,5-bisphosphate 3-kinase catalytic subunit alpha isoform (Homo sapiens, UniProt P42336); assay: Inhibition of PI3Kalpha catalytic domain (unknown origin) at 10 uM using PIP2 liposomes as substrate in presence of biotin-labeled PIP3 and GST-GRP1-PH by streptavidin-HRP based assays
T1 sequence (P42336 whole entry, the tested form may be a part, canonical isoform): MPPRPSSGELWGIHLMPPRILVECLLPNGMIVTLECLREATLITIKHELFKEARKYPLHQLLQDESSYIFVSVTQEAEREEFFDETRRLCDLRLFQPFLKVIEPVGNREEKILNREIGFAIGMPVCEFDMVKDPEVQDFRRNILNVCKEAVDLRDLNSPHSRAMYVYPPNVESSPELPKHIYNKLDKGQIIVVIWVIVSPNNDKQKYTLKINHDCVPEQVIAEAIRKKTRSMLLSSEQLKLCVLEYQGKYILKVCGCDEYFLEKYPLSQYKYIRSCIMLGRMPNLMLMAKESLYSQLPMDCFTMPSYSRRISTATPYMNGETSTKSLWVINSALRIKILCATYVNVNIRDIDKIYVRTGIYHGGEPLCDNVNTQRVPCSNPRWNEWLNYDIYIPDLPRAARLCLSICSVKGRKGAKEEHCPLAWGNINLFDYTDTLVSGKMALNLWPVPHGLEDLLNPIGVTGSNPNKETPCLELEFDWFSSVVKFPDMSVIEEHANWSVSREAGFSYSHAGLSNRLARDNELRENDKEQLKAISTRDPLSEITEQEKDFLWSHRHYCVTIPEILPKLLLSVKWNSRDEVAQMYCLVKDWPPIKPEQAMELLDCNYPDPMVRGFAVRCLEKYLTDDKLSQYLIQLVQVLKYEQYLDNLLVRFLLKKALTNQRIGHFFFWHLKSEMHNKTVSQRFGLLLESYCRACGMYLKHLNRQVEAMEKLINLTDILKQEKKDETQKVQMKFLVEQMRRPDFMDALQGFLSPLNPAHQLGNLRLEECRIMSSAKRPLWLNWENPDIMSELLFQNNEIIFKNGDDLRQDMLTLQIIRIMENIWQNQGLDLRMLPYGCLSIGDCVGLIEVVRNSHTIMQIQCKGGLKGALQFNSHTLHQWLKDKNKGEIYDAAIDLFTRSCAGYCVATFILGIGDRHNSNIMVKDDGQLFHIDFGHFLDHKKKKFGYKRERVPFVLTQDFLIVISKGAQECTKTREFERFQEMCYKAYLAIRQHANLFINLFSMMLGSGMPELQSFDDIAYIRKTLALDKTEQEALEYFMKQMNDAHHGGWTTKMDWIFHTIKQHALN

[8] = Cmax in NOD/SCID mouse at 0.5 mg/kg, ip administered as single dose by LC-MS/MS method; type: ADME, organism-based; design: dose 0.5 mg/kg, route intraperitoneal; settings: in vivo
[9] = AUC (0 to 8 hrs) in NOD/SCID mouse at 0.5 mg/kg, po administered as single dose by LC-MS/MS method; type: ADME, organism-based; design: time < 8 hr, dose 0.5 mg/kg, route oral; settings: in vivo
Mus musculus [10] = assay: Toxicity in NOD/SCID mouse assessed as phenotypic changes at 0.5 mg/kg, po administered as single dose; type: organism-based; settings: in vivo
[11] = Cmax in NOD/SCID mouse at 40 mg/kg, ip administered as single dose by LC-MS/MS method; type: ADME, organism-based; design: dose 40 mg/kg, route intraperitoneal; settings: in vivo
[12] = AUC (0 to 8 hrs) in NOD/SCID mouse at 10 mg/kg, ip administered as single dose by LC-MS/MS method; type: ADME, organism-based; design: dose 10 mg/kg, time < 8 hr, route intraperitoneal; settings: in vivo
[13] = AUC (0 to 24 hrs) in NOD/SCID mouse at 10 mg/kg, ip by LC-MS/MS method; type: ADME, organism-based; design: time < 24 hr, dose 10 mg/kg, route intraperitoneal; settings: in vivo
Mus musculus [14] = assay: Toxicity in NOD/SCID mouse assessed as phenotypic changes at 40 mg/kg, ip […]; type: organism-based; settings: in vivo
Mus musculus [15] = assay: Toxicity in NOD/SCID mouse assessed as phenotypic changes at 10 mg/kg, ip administered once daily for 18 days measured after 1 hr last dose; type: organism-based; settings: in vivo
HCC1954 [16] = assay: Anti-tumor activity against HER2-amplified human HCC1954 cells xenografted in NOD/SCID mouse assessed as tumor weight at 10 mg/kg, ip administered once daily for 18 days measured after 1 hr last dose (reference value: 0.8 +/- 0.07 g); type: functional
HCC1954 [17] = assay: Anti-tumor activity against HER2-amplified human HCC1954 cells xenografted in NOD/SCID mouse assessed as proliferation index at 10 mg/kg, ip administered once daily for 18 days measured after 1 hr last dose by Ki-67/hematoxylin and eosin staining based microscopic analysis (reference value: 78.4 +/- 14.8%); type: functional
[18] = target: Epidermal growth factor receptor (Homo sapiens) (UniProt P00533); assay: Inhibition of human EGFR (R669 to V1011 residues) expressed in bacterial expression system at 10 uM by KinomeScan method relative to control
Epidermal growth factor receptor (Homo sapiens), sequence (P00533 whole entry, the tested form may be a part): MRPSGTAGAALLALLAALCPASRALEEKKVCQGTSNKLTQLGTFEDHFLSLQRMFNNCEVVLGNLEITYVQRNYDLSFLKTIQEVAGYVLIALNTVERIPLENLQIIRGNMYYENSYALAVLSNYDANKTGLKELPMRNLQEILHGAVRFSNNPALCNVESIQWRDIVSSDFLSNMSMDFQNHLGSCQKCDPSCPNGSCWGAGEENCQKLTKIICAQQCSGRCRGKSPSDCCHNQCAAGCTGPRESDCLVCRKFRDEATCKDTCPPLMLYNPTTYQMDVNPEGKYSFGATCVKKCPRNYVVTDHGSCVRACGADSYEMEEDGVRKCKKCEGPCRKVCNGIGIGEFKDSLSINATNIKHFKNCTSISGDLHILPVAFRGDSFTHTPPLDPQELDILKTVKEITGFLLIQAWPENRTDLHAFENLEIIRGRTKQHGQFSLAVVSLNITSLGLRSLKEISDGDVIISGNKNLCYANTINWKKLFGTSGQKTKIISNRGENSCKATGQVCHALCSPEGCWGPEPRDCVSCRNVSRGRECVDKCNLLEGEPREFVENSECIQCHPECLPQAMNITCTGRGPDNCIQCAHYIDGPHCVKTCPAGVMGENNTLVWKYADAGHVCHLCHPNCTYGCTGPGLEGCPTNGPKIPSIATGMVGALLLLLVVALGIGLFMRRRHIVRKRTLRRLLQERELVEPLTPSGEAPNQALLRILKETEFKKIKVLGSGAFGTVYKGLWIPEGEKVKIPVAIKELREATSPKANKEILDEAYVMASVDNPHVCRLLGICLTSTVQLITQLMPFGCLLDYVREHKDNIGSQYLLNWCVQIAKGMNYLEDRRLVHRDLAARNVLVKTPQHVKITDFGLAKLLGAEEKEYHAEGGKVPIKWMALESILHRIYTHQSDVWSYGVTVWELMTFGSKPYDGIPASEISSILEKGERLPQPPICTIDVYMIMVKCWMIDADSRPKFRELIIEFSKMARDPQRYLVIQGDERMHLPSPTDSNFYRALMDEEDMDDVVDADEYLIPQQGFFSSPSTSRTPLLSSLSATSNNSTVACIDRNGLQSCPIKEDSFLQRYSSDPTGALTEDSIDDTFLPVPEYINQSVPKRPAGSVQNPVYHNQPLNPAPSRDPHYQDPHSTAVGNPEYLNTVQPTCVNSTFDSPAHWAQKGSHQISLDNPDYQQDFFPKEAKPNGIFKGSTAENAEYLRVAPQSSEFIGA

[19] = target: Focal adhesion kinase 1 (Homo sapiens) (UniProt Q05397); assay: Inhibition of human wild type partial length FAK (D402 to R696 residues) expressed in bacterial expression system at 10 uM by KinomeScan method relative to control
[20] = target: Fibroblast growth factor receptor 1 (Homo sapiens) (UniProt P11362); assay: Inhibition of human wild type partial length FGFR1 (P357 to V669 residues) expressed in bacterial expression system at 10 uM by KinomeScan method relative to control
Fibroblast growth factor receptor 1 (Homo sapiens), sequence (P11362 22-822 limits assumed): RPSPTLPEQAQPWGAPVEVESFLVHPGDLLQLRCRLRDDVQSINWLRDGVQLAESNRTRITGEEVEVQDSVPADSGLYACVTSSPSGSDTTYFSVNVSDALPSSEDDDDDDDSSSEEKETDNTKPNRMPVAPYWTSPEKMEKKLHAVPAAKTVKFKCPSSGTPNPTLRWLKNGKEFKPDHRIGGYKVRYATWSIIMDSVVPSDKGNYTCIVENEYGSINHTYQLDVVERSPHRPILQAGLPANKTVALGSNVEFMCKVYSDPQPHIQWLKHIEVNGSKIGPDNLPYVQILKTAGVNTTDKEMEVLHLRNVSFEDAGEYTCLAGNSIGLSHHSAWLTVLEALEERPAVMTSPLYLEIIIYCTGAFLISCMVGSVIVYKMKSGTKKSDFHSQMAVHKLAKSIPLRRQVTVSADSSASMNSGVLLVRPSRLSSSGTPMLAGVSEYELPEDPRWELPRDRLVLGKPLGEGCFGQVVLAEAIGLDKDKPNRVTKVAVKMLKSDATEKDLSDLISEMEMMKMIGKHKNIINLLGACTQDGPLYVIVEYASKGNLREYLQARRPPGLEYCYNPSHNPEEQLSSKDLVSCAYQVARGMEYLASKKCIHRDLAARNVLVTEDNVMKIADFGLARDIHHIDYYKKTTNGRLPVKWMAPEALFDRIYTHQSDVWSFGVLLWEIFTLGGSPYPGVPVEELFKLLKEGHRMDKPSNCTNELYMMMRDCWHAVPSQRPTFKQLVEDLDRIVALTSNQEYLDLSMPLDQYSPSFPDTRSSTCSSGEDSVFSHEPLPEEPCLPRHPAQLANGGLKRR

[21] = target: Tyrosine-protein kinase ITK/TSK (Homo sapiens) (UniProt Q08881); assay: Inhibition of human wild type partial length ITK (R335 to L620 residues) expressed in bacterial expression system at 10 uM by KinomeScan method relative to control
Tyrosine-protein kinase ITK/TSK (Homo sapiens), sequence (Q08881 whole entry, the tested form may be a part): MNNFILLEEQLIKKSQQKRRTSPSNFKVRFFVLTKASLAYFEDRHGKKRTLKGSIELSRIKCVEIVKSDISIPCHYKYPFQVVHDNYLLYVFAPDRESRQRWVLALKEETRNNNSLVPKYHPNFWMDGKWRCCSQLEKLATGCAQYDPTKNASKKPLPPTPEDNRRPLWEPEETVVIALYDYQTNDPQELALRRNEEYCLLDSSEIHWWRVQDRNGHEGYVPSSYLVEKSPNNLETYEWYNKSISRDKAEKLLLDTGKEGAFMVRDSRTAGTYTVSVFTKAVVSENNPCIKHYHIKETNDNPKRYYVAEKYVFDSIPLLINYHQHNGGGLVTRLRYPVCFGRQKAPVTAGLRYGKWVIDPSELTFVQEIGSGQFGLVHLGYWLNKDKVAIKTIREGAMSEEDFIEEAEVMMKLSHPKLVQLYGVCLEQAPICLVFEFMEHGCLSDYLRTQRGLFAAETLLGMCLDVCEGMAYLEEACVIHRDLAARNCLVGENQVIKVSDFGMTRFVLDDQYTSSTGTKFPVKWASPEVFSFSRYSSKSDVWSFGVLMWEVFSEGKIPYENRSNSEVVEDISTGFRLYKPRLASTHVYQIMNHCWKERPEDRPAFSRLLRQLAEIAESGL

[22] = target: Tyrosine-protein kinase Lck (Homo sapiens) (UniProt P06239); assay: Inhibition of human wild type partial length LCK (R207 to P509 residues) expressed in bacterial expression system at 10 uM by KinomeScan method relative to control
Tyrosine-protein kinase Lck (Homo sapiens), sequence (P06239 2-509 limits assumed): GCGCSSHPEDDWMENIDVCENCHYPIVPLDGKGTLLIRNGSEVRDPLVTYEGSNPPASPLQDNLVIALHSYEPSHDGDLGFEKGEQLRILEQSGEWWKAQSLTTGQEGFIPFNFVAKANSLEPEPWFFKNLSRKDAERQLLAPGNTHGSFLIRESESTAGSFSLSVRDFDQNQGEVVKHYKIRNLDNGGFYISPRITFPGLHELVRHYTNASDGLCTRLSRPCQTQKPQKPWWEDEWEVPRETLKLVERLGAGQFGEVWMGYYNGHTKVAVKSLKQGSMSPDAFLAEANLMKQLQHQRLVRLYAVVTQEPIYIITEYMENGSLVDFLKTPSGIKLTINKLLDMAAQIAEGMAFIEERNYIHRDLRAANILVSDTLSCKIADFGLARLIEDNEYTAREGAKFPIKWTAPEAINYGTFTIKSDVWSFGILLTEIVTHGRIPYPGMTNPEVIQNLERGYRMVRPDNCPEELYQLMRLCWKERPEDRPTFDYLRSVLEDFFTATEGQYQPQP

[23] = target: Mitogen-activated protein kinase kinase kinase 4 (Homo sapiens) (UniProt Q9Y6R4); assay: Inhibition of human wild type partial length MAP3K4 (G1319 to E1608 residues) expressed in bacterial expression system at 10 uM by KinomeScan method relative to control
[24] = target: Dual specificity mitogen-activated protein kinase kinase 4 (Homo sapiens) (UniProt P45985); assay: Inhibition of human wild type partial length MEK4 (S84 to D399 residues) expressed in mammalian expression system at 10 uM by KinomeScan method relative to control
[25] = target: T1, Phosphatidylinositol 4,5-bisphosphate 3-kinase catalytic subunit alpha isoform; assay: Inhibition of human wild type partial length PIK3CA (R108 to N1068 residues) expressed in mammalian expression system at 10 uM by KinomeScan method relative to control
[26] = tested on: Phosphatidylinositol 4,5-bisphosphate 3-kinase catalytic subunit alpha isoform (Homo sapiens), P42336 [H1047Y]; assay: Inhibition of human wild type partial length PIK3CA H1047Y mutant (R108 to N1068 residues) expressed in mammalian expression system at 10 uM by KinomeScan method relative to control
Phosphatidylinositol 4,5-bisphosphate 3-kinase catalytic subunit alpha isoform (Homo sapiens), P42336 [H1047Y], sequence (P42336 whole entry H1047Y, the tested form may be a part, canonical isoform): as the sequence (P42336 whole entry, the tested form may be a part, canonical isoform) above, with H1047Y counted along it

[27] = target: Proto-oncogene tyrosine-protein kinase Src (Homo sapiens) (UniProt P12931); assay: Inhibition of human wild type partial length SRC (L240 to L536 residues) expressed in bacterial expression system at 10 uM by KinomeScan method relative to control
Proto-oncogene tyrosine-protein kinase Src (Homo sapiens), sequence (P12931 2-536 limits assumed): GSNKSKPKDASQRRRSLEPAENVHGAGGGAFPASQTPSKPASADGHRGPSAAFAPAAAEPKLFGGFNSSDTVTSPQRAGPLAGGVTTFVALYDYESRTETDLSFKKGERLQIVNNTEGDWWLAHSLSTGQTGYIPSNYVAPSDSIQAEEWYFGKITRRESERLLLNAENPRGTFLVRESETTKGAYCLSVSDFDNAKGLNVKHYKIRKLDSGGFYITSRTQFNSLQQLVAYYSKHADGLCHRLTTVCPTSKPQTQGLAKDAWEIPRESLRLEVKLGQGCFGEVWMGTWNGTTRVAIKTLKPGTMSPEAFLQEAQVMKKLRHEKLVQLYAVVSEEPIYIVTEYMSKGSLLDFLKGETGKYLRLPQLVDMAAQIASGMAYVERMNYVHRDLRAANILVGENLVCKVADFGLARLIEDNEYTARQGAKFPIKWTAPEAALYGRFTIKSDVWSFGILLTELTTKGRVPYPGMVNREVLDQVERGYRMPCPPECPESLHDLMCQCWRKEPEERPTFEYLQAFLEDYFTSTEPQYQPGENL

[28] = target: Tyrosine-protein kinase SYK (Homo sapiens) (UniProt P43405); assay: Inhibition of human wild type partial length SYK (D354 to N635 residues) expressed in bacterial expression system at 10 uM by KinomeScan method relative to control
[29] = target: Tyrosine-protein kinase Tec (Homo sapiens) (UniProt P42680); assay: Inhibition of human wild type partial length TEC (L341 to D620 residues) expressed in bacterial expression system at 10 uM by KinomeScan method relative to control

SMILES: Cc1nc2nc(Sc3ccccc3)cnc2cc1NC(=O)Nc1ccccc1
- Activity (MCF7): >50%
- Activity (T47D [1]): >50%
- Activity (T47D [2]): >50%
- Activity (HCC1954 [3]): >50%
- IC50 (T47D [4]): 5.7 µM
- IC50 (MDA-MB-231): 6.1 µM
- inhibition [5]: inactive
- inhibition [6]: inactive
- inhibition [7]: Active
- Cmax [8]: 0.82 µM
- AUC(0-t) at 8 h [9]: 1.53 µM·h
- Activity (Mus musculus [10]): Non-Toxic
- Cmax [11]: 18.7 µM
- AUC(0-t) at 8 h [12]: 19.9 µM·h
- AUC(0-t) at 24 h [13]: 39.1 µM·h
- Activity (Mus musculus [14]): Toxic
- Activity (Mus musculus [15]): Non-Toxic
- Activity (HCC1954 [16]): 0.2 g
- Activity_index (HCC1954 [17]): 25.7%
- inhibition [18]: 8%
- inhibition [19]: 0%
- inhibition [20]: 18%
- inhibition [21]: 5%
- inhibition [22]: 2%
- inhibition [23]: 16%
- inhibition [24]: 0%
- inhibition [25]: 0%
- inhibition [26]: 8%
- inhibition [27]: 3%
- inhibition [28]: 10%
- inhibition [29]: 9%
